In the supplement of paper PMC7244745:
Structures can show the parent of a compound that is named as a salt. ± gives the uncertainty stated by the source.

Experiments:
[1] = system: Klebsiella pneumoniae ATCC 13882; assay: final OD630 (growth) after 24 h; higher = more bacterial growth; extreme values may be limits of the assay
Protocol: (§1)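 Klebsiella pneumoniae ATCC 13882 (start OD600 0.05) grown in M9U medium with 40 mM urea and phenol red plus inhibitor, in triplicate in 96-well plates. A557 and OD630 were read every 15 min for 24 h. Ureolysis was followed as the pH-related A557-A630: onset time, Gompertz-fit rate and final value. Growth was followed as OD630.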

[2] = system: Klebsiella pneumoniae ATCC 13882; assay: onset of ureolytic pH increase; higher = more delayed ureolysis (inhibition)
Protocol: as §1

[3] = system: Klebsiella pneumoniae ATCC 13882; assay: final pH-related absorbance (A557-A630) after 24 h (absorbance units); higher = more ureolysis; extreme values may be limits of the assay
Protocol: as §1

[4] = system: Klebsiella pneumoniae ATCC 13882; assay: rate of pH (A557-A630) increase, Gompertz fit (10^-4 s-1); higher = faster ureolysis; extreme values may be limits of the assay
Protocol: as §1

SMILES | final OD630 ([1]; 0.1 mM) | final OD630 ([1]; 1 mM) | final OD630 ([1]; 10 mM) | onset of ureolytic pH increase ([2]; 0.1 mM) [min] | onset of ureolytic pH increase ([2]; 1 mM) [min] | onset of ureolytic pH increase ([2]; 10 mM) [min] | final pH-related absorbance ([3]; 0.1 mM) | final pH-related absorbance ([3]; 1 mM) | final pH-related absorbance ([3]; 10 mM) | rate of pH ([4]; 0.1 mM) | rate of pH ([4]; 1 mM) | rate of pH ([4]; 10 mM) | other results
O=C1C=CC(=O)N1c1ccccc1 [N-phenylmaleimide] |  |  |  |  |  |  |  |  |  |  |  |  | final OD630 ([1]; 0.039 mM): 0.448 ± 0.07; final OD630 ([1]; 0.39 mM): 0; final OD630 ([1]; 3.9 mM): 0; onset of ureolytic pH increase ([2]; 0.039 mM): 781 ± 9.3 min; onset of ureolytic pH increase ([2]; 0.39 mM): > 1500 min; onset of ureolytic pH increase ([2]; 3.9 mM): > 1500 min; final pH-related absorbance ([3]; 0.039 mM): 0.136 ± 0.0029; final pH-related absorbance ([3]; 0.39 mM): 0; final pH-related absorbance ([3]; 3.9 mM): 0; rate of pH ([4]; 0.039 mM): 1.67 ± 0.056; rate of pH ([4]; 0.39 mM): 0; rate of pH ([4]; 3.9 mM): 0
NCCS [Cysteamine hydrochloride] | 0.5 ± 0.0053 | 0.487 ± 0.0016 | 0.447 ± 0.0027 | 510 ± 6.2 | 607.5 ± 1.2 | 911.1 ± 1.1 | 0.256 ± 0.0053 | 0.246 ± 0.0058 | 0.097 ± 0.0002 | 1.44 ± 0.07 | 0.893 ± 0.012 | 0.736 ± 0.0043 | 
C=C(CC)C(=O)c1ccc(OCC(=O)O)c(Cl)c1Cl [Ethacrynic acid] | 0.437 ± 0.0002 | 0.44 ± 0.0048 | 0 | 697.4 ± 3.6 | 754 ± 100 | 0 | 0.139 ± 0.0023 | 0.128 ± 0.018 | 0.294 ± 0.0059 | 1.57 ± 0.073 | 1.49 ± 0.037 | 0.033 ± 0.0006 | 
NC(=O)NO [Hydroxyurea] | 0.483 ± 0.006 | 0.452 ± 0.031 | 0.262 ± 0.002 | 436 ± 6.5 | 442 ± 25 | > 900 | 0.258 ± 0.007 | 0.198 ± 0.029 | 0 | 1.89 ± 0.32 | 1.01 ± 0.031 | 0 | 
N[C@@H](CS)C(=O)O [L-cysteine] | 0.431 ± 0.0025 | 0.334 ± 0.008 | 0.289 ± 0.01 | 952 ± 1.8 | > 1500 | > 1500 | 0.225 ± 0.0018 | 0 | 0 | 1.656 ± 0.0059 | 0 | 0 | 
Oc1ccc(Cl)cc1 [p-chlorophenol] | 0.42 ± 0.0062 | 0.401 ± 0.0036 | 0 | 732.7 ± 2.5 | 935 ± 14 | > 900 | 0.162 ± 0.0043 | 0.09 ± 0.0059 | 0 | 1.5 ± 0.019 | 0.0559 ± 0.0036 | 0 | 
O=C1CC(=O)NC(=S)N1 [2-Thiobarbituric acid] |  |  |  |  |  |  |  |  |  |  |  |  | final OD630 ([1]; 0.012 mM): 0.449 ± 0.007; final OD630 ([1]; 0.118 mM): 0.437 ± 0.008; final OD630 ([1]; 1.18 mM): 0.303 ± 0.028; onset of ureolytic pH increase ([2]; 0.012 mM): 556.8 ± 1.3 min; onset of ureolytic pH increase ([2]; 0.118 mM): 581 ± 24 min; onset of ureolytic pH increase ([2]; 1.18 mM): > 900 min; final pH-related absorbance ([3]; 0.012 mM): 0.201 ± 0.008; final pH-related absorbance ([3]; 0.118 mM): 0.194 ± 0.006; final pH-related absorbance ([3]; 1.18 mM): 0; rate of pH ([4]; 0.012 mM): 2.14 ± 0.06; rate of pH ([4]; 0.118 mM): 2.04 ± 0.024; rate of pH ([4]; 1.18 mM): 0
NC=O [Formamide] | 0.513 ± 0.0092 | 0.512 ± 0.0096 | 0.513 ± 0.008 | 550 ± 22 | 560 ± 15 | 572 ± 7.5 | 0.168 ± 0.021 | 0.172 ± 0.027 | 0.165 ± 0.021 | 2.01 ± 0.1 | 2.24 ± 0.1 | 2.188 ± 0.02 | 
NC(=O)NC1NC(=O)NC1=O (stereo unspecified) [Allantoin] |  |  |  |  |  |  |  |  |  |  |  |  | final OD630 ([1]; 0.033 mM): 0.525 ± 0.0093; final OD630 ([1]; 0.33 mM): 0.507 ± 0.0058; final OD630 ([1]; 3.33 mM): 0.495 ± 0.0081; onset of ureolytic pH increase ([2]; 0.033 mM): 577.5 ± 5.1 min; onset of ureolytic pH increase ([2]; 0.33 mM): 577.1 ± 4.4 min; onset of ureolytic pH increase ([2]; 3.33 mM): 602 ± 7 min; final pH-related absorbance ([3]; 0.033 mM): 0.231 ± 0.0095; final pH-related absorbance ([3]; 0.33 mM): 0.216 ± 0.003; final pH-related absorbance ([3]; 3.33 mM): 0.222 ± 0.0053; rate of pH ([4]; 0.033 mM): 1.66 ± 0.032; rate of pH ([4]; 0.33 mM): 1.718 ± 0.017; rate of pH ([4]; 3.33 mM): 1.68 ± 0.02
[F-].[Na+] [Sodium flouride] | 0.408 ± 0.0001 | 0.368 ± 0.0081 | 0.335 ± 0.0025 | 733.1 ± 3.4 | > 1500 | > 1500 | 0.178 ± 0.0021 | 0 | 0 | 1.35 ± 0.025 | 0 | 0 | 
CN(CC(=O)O)C(=N)N [Creatine monohydrate] |  |  |  |  |  |  |  |  |  |  |  |  | final OD630 ([1]; 0.0026 mM): 0.503 ± 0.012; final OD630 ([1]; 0.026 mM): 0.496 ± 0.0032; final OD630 ([1]; 0.26 mM): 0.497 ± 0.0049; onset of ureolytic pH increase ([2]; 0.0026 mM): 572.2 ± 2.2 min; onset of ureolytic pH increase ([2]; 0.026 mM): 575 ± 8.8 min; onset of ureolytic pH increase ([2]; 0.26 mM): 565.1 ± 4.7 min; final pH-related absorbance ([3]; 0.0026 mM): 0.217 ± 0.0008; final pH-related absorbance ([3]; 0.026 mM): 0.22 ± 0.0025; final pH-related absorbance ([3]; 0.26 mM): 0.22 ± 0.0028; rate of pH ([4]; 0.0026 mM): 1.73 ± 0.023; rate of pH ([4]; 0.026 mM): 1.73 ± 0.059; rate of pH ([4]; 0.26 mM): 1.78 ± 0.032
CC(O)(P(=O)(O)O)P(=O)(O)O [Etidronic acid monohydrate] | 0.432 ± 0.0054 | 0.443 ± 0.0026 | 0 | 673.9 ± 2.3 | 672.1 ± 2.5 | > 900 | 0.323 ± 0.0087 | 0.28 ± 0.005 | 0 | 1.63 ± 0.035 | 1.597 ± 0.013 | 0 | 
Oc1ccc(O)cc1 [Hydroquinone] | 0.408 ± 0.021 | 0.423 ± 0.038 |  | 680 ± 7.1 | 704 ± 40 |  | 0.155 ± 0.0064 | 0.157 ± 0.0044 |  | 1.78 ± 0.19 | 1.58 ± 0.096 |  | 
OCCS [2-mercaptoethanol] | 0.416 ± 0.0027 | 0.208 ± 0.0036 | 0.155 ± 0.0041 | 602 ± 7.5 | > 1500 | > 1500 | 0.19 ± 0.0096 | 0 | 0 | 1.72 ± 0.061 | 0 | 0 | 
O.O.O.O.O.O.O.O=S(=O)([O-])[O-].[Mg+2] [Magnesium sulfate] | 0.553 ± 0.034 | 0.508 ± 0.0073 | 0.521 ± 0.0037 | 568.1 ± 4.6 | 571 ± 7.1 | 555 ± 12 | 0.151 ± 0.0021 | 0.153 ± 0.0018 | 0.177 ± 0.0039 | 2.16 ± 0.017 | 2.15 ± 0.021 | 2.01 ± 0.046 | 
O=C(OC[C@H]1O[C@@H](OC(=O)c2cc(O)c(O)c(OC(=O)c3cc(O)c(O)c(O)c3)c2)[C@H](OC(=O)c2cc(O)c(O)c(OC(=O)c3cc(O)c(O)c(O)c3)c2)[C@@H](OC(=O)c2cc(O)c(O)c(OC(=O)c3cc(O)c(O)c(O)c3)c2)[C@@H]1OC(=O)c1cc(O)c(O)c(OC(=O)c2cc(O)c(O)c(O)c2)c1)c1cc(O)c(O)c(OC(=O)c2cc(O)c(O)c(O)c2)c1 [Tannic acid] | 0.452 ± 0.0032 | 0.433 ± 0.0003 | 0 | 605 ± 31 | 641.6 ± 5.1 | > 1500 | 0.129 ± 0.0091 | 0.125 ± 0.0013 | 0 | 1.47 ± 0.091 | 1.282 ± 0.0068 | 0 | 
O=S(=O)(O)SSS(=O)(=O)O [Sodium tetrathionate dihydrate] | 0.532 ± 0.027 | 0.541 ± 0.021 | 0.554 ± 0.021 | 433 ± 21 | 434 ± 22 | 430 ± 23 | 0.569 ± 0.076 | 0.492 ± 0.1 | 0.5 ± 0.12 | 3.64 ± 1.1 | 3.32 ± 1.5 | 3.97 ± 1.7 | 
NC(=O)CN(CC(=O)O)CC(=O)O [N-(2-acetamido)iminodiacetic acid] |  |  |  |  |  |  |  |  |  |  |  |  | final OD630 ([1]; 0.0035 mM): 0.548 ± 0.048; final OD630 ([1]; 0.0351 mM): 0.519 ± 0.0043; final OD630 ([1]; 0.351 mM): 0.511 ± 0.0089; onset of ureolytic pH increase ([2]; 0.0035 mM): 570 ± 8.3 min; onset of ureolytic pH increase ([2]; 0.0351 mM): 562.4 ± 3 min; onset of ureolytic pH increase ([2]; 0.351 mM): 581.8 ± 1.1 min; final pH-related absorbance ([3]; 0.0035 mM): 0.217 ± 0.0022; final pH-related absorbance ([3]; 0.0351 mM): 0.218 ± 0.0017; final pH-related absorbance ([3]; 0.351 mM): 0.219 ± 0.0049; rate of pH ([4]; 0.0035 mM): 1.791 ± 0.016; rate of pH ([4]; 0.0351 mM): 1.805 ± 0.018; rate of pH ([4]; 0.351 mM): 1.77 ± 0.053
NC(N)=S [Thiourea] | 0.48 ± 0.0071 | 0.492 ± 0.012 | 0.483 ± 0.008 | 410 ± 18 | 424 ± 12 | 456 ± 13 | 0.271 ± 0.024 | 0.25 ± 0.0002 | 0.236 ± 0.014 | 2.27 ± 0.21 | 2.13 ± 0.083 | 1.94 ± 0.099 | 
CC(=NO)C(C)=NO [Dimethylglyoxime] |  |  |  |  |  |  |  |  |  |  |  |  | final OD630 ([1]; 0.03 mM): 0.443 ± 0.007; final OD630 ([1]; 0.3 mM): 0.377 ± 0.017; final OD630 ([1]; 3.01 mM): 0; onset of ureolytic pH increase ([2]; 0.03 mM): 573.9 ± 0.72 min; onset of ureolytic pH increase ([2]; 0.3 mM): 771 ± 36 min; onset of ureolytic pH increase ([2]; 3.01 mM): 0 min; final pH-related absorbance ([3]; 0.03 mM): 0.183 ± 0.0026; final pH-related absorbance ([3]; 0.3 mM): 0.142 ± 0.032; final pH-related absorbance ([3]; 3.01 mM): 0.466 ± 0.023; rate of pH ([4]; 0.03 mM): 2.093 ± 0.018; rate of pH ([4]; 0.3 mM): 1.96 ± 0.3; rate of pH ([4]; 3.01 mM): 0.0904 ± 0.0046
